Data as given in patent publication US20120101136A1, “5-MEMBERED HETEROARYL DERIVATIVES USED AS SPHINGOSINE 1- PHOSPHATE RECEPTOR AGONISTS” (GLAXO GROUP LIMITED, priority 2009, published 2012).

Biological target: T1, S1P1 receptor (human Endothelial Differentiation Gene 1 (EDG1)) (Homo sapiens, UniProt P21453)
T1 construct: TEV protease site; Gal4-VP16 transcription factor; expressed in transfected cells; host or cells: Tango GPCR-bla U2OS parental cell line (EDG1-bla/U2OS)
Test: S1P1 Tango Assay - 384 Well Format (EDG1-bla/U2OS cells)
Assay type: cell-based
Conditions: agonist, beta-lactamase reporter
Method: Recombinant EDG1-bla/U2OS cells (contain the human Endothelial Differentiation Gene 1 (EDG1) linked to a TEV protease site and a Gal4-VP16 transcription factor stably integrated into the Tango GPCR-bla U2OS parental cell line) were harvested from growth medium and passaged into assay medium (Invitrogen Freestyle Expression Medium). The cells were starved for 24 hours at 37° C., 5% CO2, harvested and resuspended in assay medium at a density of ˜200,000 cells/ml.
All test compounds were dissolved in DMSO at a concentration of 10 mM and were prepared in 100% DMSO to provide 10 point dose response curves. Test compounds prepared by Bravo (Velocity 11) were added to wells in columns 2-11 and 13-22; DMSO was added to wells in columns 12 and 23 as unstimulated controls and assay medium was added to wells in columns 1 and 24 as cell-free controls. An S1P1 agonist was added to wells in row 2, columns 2-11 as stimulated controls and test compounds were added to wells in row 2, columns 13-22 and rows 3-15, columns 2-11/13-22 (row 1 and 16 were empty and not used). Compounds in solution were added to the assay plate (Greiner 781090) using an Echo (Labcyte) dose-response program (50 nl/well). The unstimulated and cell-free controls were loaded with 50 nl/well pure DMSO to ensure that the DMSO concentration was constant across the plate for all assays.
50 μl of the cell suspension was added to each well in columns 2-23 of the plate (˜10,000 cells per well). 50 μl of assay medium was added to each well in the cell-free controls (columns 1 and 24). The cells were incubated overnight at 37° C./5% CO2.
10 μl of 6× substrate mixture (LiveBLAzer™-FRET B/G substrate (CCF4-AM) Cat # K1096 from Invitrogen, Inc.) was added to each well using Bravo and the plates incubated at room temperature for 2 h in the dark. The plate was finally read on EnVision using one excitation channel (409 nm) and two emission channels (460 nm and 530 nm).
The blue/green emission ratio (460 nm/530 nm) was calculated for each well, by dividing the background-subtracted Blue emission values by the background-subtracted Green emission values. The dose response curve is based on sigmoidal dose-response model. All ratio data was normalized based upon the maximum emission ratio of positive control and minimum emission ratio of negative control (DMSO) on each plate. The intrinsic activity (IA) of each compound would be the normalized percentage of its maximum response after curve fitting.

T1 sequence (P21453 whole entry, the tested form may be a part): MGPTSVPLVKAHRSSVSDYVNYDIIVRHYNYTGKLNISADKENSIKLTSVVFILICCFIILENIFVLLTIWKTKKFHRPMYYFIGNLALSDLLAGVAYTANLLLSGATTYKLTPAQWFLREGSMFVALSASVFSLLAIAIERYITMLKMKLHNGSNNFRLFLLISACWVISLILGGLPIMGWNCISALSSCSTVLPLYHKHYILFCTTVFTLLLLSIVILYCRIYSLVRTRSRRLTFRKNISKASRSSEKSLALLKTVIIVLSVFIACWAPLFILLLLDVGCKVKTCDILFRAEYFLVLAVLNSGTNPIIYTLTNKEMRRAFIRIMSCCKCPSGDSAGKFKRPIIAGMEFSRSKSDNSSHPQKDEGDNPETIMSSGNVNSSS

Q: For CCc1cc(OCC(=O)O)ccc1-c1noc(-c2ccc(OC(C)C)c(Cl)c2)n1 [Example 28, {[4-(5-{3-chloro-4-[(1-methylethyl)oxy]phenyl}-1,2,4-oxadiazol-3-yl)-3-ethylphenyl]oxy}acetic acid], which EC50 is on record?
A: ≤ 1 nM

Q: For CCc1cc(OCCCCC(=O)O)ccc1-c1noc(-c2ccc(OC(C)C)c(Cl)c2)n1 [Example 29, 5-{[4-(5-{3-chloro-4-[(1-methylethyl)oxy]phenyl}-1,2,4-oxadiazol-3-yl)-3-ethylphenyl]oxy}pentanoic acid], which EC50 is on record?
A: ≤ 1 nM

Q: Which EC50 does the source give for CCc1cc(OCCCC(=O)O)ccc1-c1noc(-c2ccc(OC(C)C)c(Cl)c2)n1 [Example 30, 4-{[4-(5-{3-chloro-4-[(1-methylethyl)oxy]phenyl}-1,2,4-oxadiazol-3-yl)-3-ethylphenyl]oxy}butanoic acid] here?
A: ≤ 0.1 nM

Q: For CCc1cc(OCCCCC(=O)O)ccc1-c1noc(-c2ccc(OC(C)C)c(C#N)c2)n1 [Example 31, 5-{[4-(5-{3-cyano-4-[(1-methylethyl)oxy]phenyl}-1,2,4-oxadiazol-3-yl)-3-ethylphenyl]oxy}pentanoic acid], which EC50 is on record?
A: ≤ 0.1 nM

Q: Which EC50 does the source give for CCc1cc(OCCCC(=O)O)ccc1-c1noc(-c2ccc(OC(C)C)c(C#N)c2)n1 [Example 32, 4-{[4-(5-{3-cyano-4-[(1-methylethyl)oxy]phenyl}-1,2,4-oxadiazol-3-yl)-3-ethylphenyl]oxy}butanoic acid] here?
A: ≤ 0.1 nM

Q: Which EC50 does the source give for CCc1cc(OCCNC)ccc1-c1noc(-c2ccc(OC(C)C)c(C#N)c2)n1 [Example 33, 5-[3-(2-ethyl-4-{[2-(methylamino)ethyl]oxy}phenyl)-1,2,4-oxadiazol-5-yl]-2-[(1-methylethyl)oxy]benzonitrile] here?
A: ≤ 10 nM

Q: Which EC50 does the source give for CCc1cc(OCCCCNC)ccc1-c1noc(-c2ccc(OC(C)C)c(Cl)c2)n1 [Example 34, (4-{[4-(5-{3-chloro-4-[(1-methylethyl)oxy]phenyl}-1,2,4-oxadiazol-3-yl)-3-ethylphenyl]oxy}butyl)methylamine] here?
A: ≤ 100 nM

Q: How did the EC50 turn out when CCc1cc(OCCCNC)ccc1-c1noc(-c2ccc(OC(C)C)c(Cl)c2)n1 [Example 35, (3-{[4-(5-{3-chloro-4-[(1-methylethyl)oxy]phenyl}-1,2,4-oxadiazol-3-yl)-3-ethylphenyl]oxy}propyl)methylamine] was run?
A: ≤ 10 nM

Q: For CNCCOc1ccc(-c2noc(-c3ccc(OC(C)C)c(C#N)c3)n2)c(Cl)c1 [Example 36, 5-[3-(2-chloro-4-{[2-(methylamino)ethyl]oxy}phenyl)-1,2,4-oxadiazol-5-yl]-2-[(1-methylethyl)oxy]benzonitrile], which EC50 is on record?
A: ≤ 1 nM

Q: How did the EC50 turn out when CNCCCOc1ccc(-c2noc(-c3ccc(OC(C)C)c(C#N)c3)n2)c(Cl)c1 [Example 37, 5-[3-(2-chloro-4-{[3-(methylamino)propyl]oxy}phenyl)-1,2,4-oxadiazol-5-yl]-2-[(1-methylethyl)oxy]benzonitrile] was run?
A: ≤ 1 nM

Q: How did the EC50 turn out when CCc1cc(OCCCCNC)ccc1-c1noc(-c2ccc(OC(C)C)c(C#N)c2)n1 [Example 38, 5-[3-(2-ethyl-4-{[4-(methylamino)butyl]oxy}phenyl)-1,2,4-oxadiazol-5-yl]-2-[(1-methylethyl)oxy]benzonitrile] was run?
A: ≤ 10 nM

Q: CCc1cc(OCCCNC)ccc1-c1noc(-c2ccc(OC(C)C)c(C#N)c2)n1 [Example 39, 5-[3-(2-ethyl-4-{[3-(methylamino)propyl]oxy}phenyl)-1,2,4-oxadiazol-5-yl]-2-[(1-methylethyl)oxy]benzonitrile] was tested. Which EC50 did it give?
A: ≤ 1 nM

Q: For CNCCCOc1ccc(-c2noc(-c3ccc(OC(C)C)c(Cl)c3)n2)c(C)c1 [Example 40, (3-{[4-(5-{3-chloro-4-[(1-methylethyl)oxy]phenyl}-1,2,4-oxadiazol-3-yl)-3-methylphenyl]oxy}propyl)methylamine], which EC50 is on record?
A: ≤ 10 nM

Q: CCc1cc(OCCCC(=O)O)ccc1-c1nc(-c2ccc(OC(C)C)c(C#N)c2)ns1 [Example 41, 4-{[4-(3-{3-cyano-4-[(1-methylethyl)oxy]phenyl}-1,2,4-thiadiazol-5-yl)-3-ethylphenyl]oxy}butanoic acid] was tested. Which EC50 did it give?
A: ≤ 1 nM

Q: For CCc1cc(OCCCC(=O)O)ccc1-c1nsc(-c2ccc(OC(C)C)c(C#N)c2)n1 [Example 42, 4-{[4-(5-{3-cyano-4-[(1-methylethyl)oxy]phenyl}-1,2,4-thiadiazol-3-yl)-3-ethylphenyl]oxy}butanoic acid], which EC50 is on record?
A: ≤ 10 nM

Q: Which EC50 does the source give for CCc1cc(OCCCC(=O)O)ccc1-c1cnc(-c2ccc(OC(C)C)c(C#N)c2)s1 [Example 43, 4-{[4-(2-{3-cyano-4-[(1-methylethyl)oxy]phenyl}-1,3-thiazol-5-yl)-3-ethylphenyl]oxy}butanoic acid] here?
A: ≤ 1 nM

Q: With CCc1cc(OCCCNC)ccc1-c1cnc(-c2ccc(OC(C)C)c(C#N)c2)s1 [Example 44, 5-[5-(2-ethyl-4-{[3-(methylamino)propyl]oxy}phenyl)-1,3-thiazol-2-yl]-2-[(1-methylethyl)oxy]benzonitrile] as the molecule, how does the EC50 read?
A: ≤ 1000 nM
